Measurements as given in patent US9938316B2, “Selective inhibitors of α2 isoform of Na,K-ATPase and use thereof for reduction of intra-ocular pressure and as cardiotonic agents” (priority 2013, dated 2018).
Like-named read-outs stand apart in the source and are kept apart here.

Experiments:
[1] = system: intra-ocular pressure (IOP) of rabbits; assay: 4-aminopyridine (4AP)-induced ocular hypertension in rabbits; type: in vivo, New Zealand white rabbits
Experimental: Intra-ocular pressure in rabbits was measured using of a “Reichert Model 30™ Pneumatonometer” after anesthetizing the cornea with local anesthetic.
Since the IOP reflects a balance of the inflow and outflow of aqueous humour, reduction of the increased 4AP-induced inflow of aqueous humour by cardiac glycosides should prevent the increase in IOP. Thus, the standard experimental design to test effects of cardiac glycosides involved topical application of the compounds (1 drop in each eye) 30 minutes prior to application of 4AP and measurement of IOP every 30 minutes over five hours. […] Each experiment was done three times, but the figures depict a representative experiment using a different rabbit for each concentration of the cardiac glycoside.
DGlyN or DMe (0.1 or 1 mM) were applied one hour after the first application of 4AP, which was added every two hours.
New Zealand white rabbits (3-3.5 kg) about 1 year old, of either sex, were housed individually in separate cages in animal room conditions on a reversed, 12-hour dark/light cycle. For the experiments the animals were transferred to rabbit restrainers in a quiet and calm atmosphere (FIG. 1). […] Animal care and treatment were subject to the approval of the institutional committee for animal experiments, Weizmann Institute IACUC permission (no 04270911-2).
IOP (mm Hg) of rabbits was measured using a calibrated Pneumatonometer (Model 30, Reichert technologies, FIG. 1). A local anesthetic Oxybuprocaine HCl (0.4%, 25 μl) was applied to each cornea about a minute before IOP measurements. Two baseline IOP readings were taken before topical administration of the CG (or PBS as control) and after half an hour (Zero time). […] At zero time one drop of 4AP (40 mg/ml, 30 μl) or IB-MECA (1 μM, 30 μl) was administered to both eyes of each rabbit IOP measurements were made at different times as indicated in each experiment. In the experiments for which the IOP was elevated for several hours, 4AP was added every […] or IB-MECA every 2 hours. […] In all cases the figures depict the average effect on IOP (i.e for four or six eyes) compared to control ±SEM. […] Significance of differences from the control was calculated by the unpaired Students t-test (p values), p values <0.05 were considered significant. Corneal thickness (μm) was measured using an ultrasonic pachymeter (Sonogage pachometer, Cleveland, USA), before and during the experiment with CG and 4AP treatments. The values represent averages of three independent measurements for each eye.

[2] = biological target: Na,K-ATPase α1β1 isoform complex (Homo sapiens, UniProt P05023); assay: biochemical; details: α1β1
Experimental: (§1) Methods for transformation, culture of P. pastoris clones, protein expression of Na,K-ATPase human isoforms (α1β1, α2β1, α3β1), membrane preparation, solubilization of membranes in DDM, and purification on BD-Talon beads have been described in detail (6-9, 11, 25). In initial experiments the three purified isoform complexes (0.3-0.5 mg/ml) were eluted from the BD-Talon beads in a solution containing Imidazole 170 mM, NaCl 100 mM; Tricine.HCl 20 mM pH 7.4; C12E8, 0.1 mg/ml; SOPS 0.07 mg/ml cholesterol 0.01 mg/ml, glycerol 25%. In later experiments the isoforms complexes were reconstituted with purified FXYD1 on the BD-Talon beads together as described in detail in (10, 11) prior to elution of α1β1FXYD1, α2β1FXYD1 and α3β1FXYD1 complexes. The proteins were stored at −80° C. Protein concentration was determined with BCA (B9643 Sigma).
(§2) Inhibition of Na,K-ATPase activity of the detergent-soluble α1β1, α2β1, and α3β1 complexes by CG's was determined as described (6) using either the αβ or αβFXYD1 complexes. […] The K0.5K was estimated by varying K concentration in a medium containing a fixed total K+choline chloride of 60 mM, and constant NaCl of 140 mM. Curves were fitted to the Hill function v=Vmax*[S]^n/([S]^n+K^n), where S is the K concentration, n is the Hill coefficient and K^n is K0.5K. For comparison of different curves the ratio v/Vmax for each curve was calculated and replotted. In experiments to assess inhibition of Na,K-ATPase activity by cardiac glycosides of the present invention, the percent inhibition VCG/V0 was calculated and Ki values were obtained by fitting the data to the function VCG/V0=Ki/([CG]+Ki)+ c. Inhibition was estimated in 3-8 separate experiments and average Ki values ±SEM were calculated. Significance of differences between Kiα1 and Kiα2 was calculated by the unpaired Student's t-test (p values). […] P values <0.05 were considered significant.

[3] = biological target: Na,K-ATPase α2β1 isoform complex (Homo sapiens, UniProt P50993); assay: biochemical; type: biochemical; details: α2β1
Experimental: as §1, §2

[4] = system: Na,K-ATPase α2β1 isoform complex; assay: biochemical; type: biochemical, human; details: Kiα1β1/Kiα2β1
Experimental: as §1, §2

cornea of rabbits = assay: Pachymetry: corneal thickness and local toxicity after topical cardiac glycosides; type: in vivo, New Zealand white rabbits; details: for Corneal thickness: 1 mM
Experimental: Thus, in this study, no change in corneal thickness was detected (Table 3), indicative of lack of local toxic effects. […] Similar results were obtained with CG's applied after IB-MECA.
IOP (mm Hg) of rabbits was measured using a calibrated Pneumatonometer (Model 30, Reichert technologies, FIG. 1). A local anesthetic Oxybuprocaine HCl (0.4%, 25 μl) was applied to each cornea about a minute before IOP measurements. Two baseline IOP readings were taken before topical administration of the CG (or PBS as control) and after half an hour (Zero time). […] At zero time one drop of 4AP (40 mg/ml, 30 μl) or IB-MECA (1 μM, 30 μl) was administered to both eyes of each rabbit IOP measurements were made at different times as indicated in each experiment. In the experiments for which the IOP was elevated for several hours, 4AP was added every 1.5 hours or IB-MECA every 2 hours. […] Each experiment was repeated two or three times with similar results. In all cases the figures depict the average effect on IOP (i.e for four or six eyes) compared to control ±SEM. Where error bars are not seen in the figures, the errors are smaller than the symbols used. Significance of differences from the control was calculated by the unpaired Students t-test (p values), p values <0.05 were considered significant. Corneal thickness (μm) was measured using an ultrasonic pachymeter (Sonogage pachometer, Cleveland, USA), before and during the experiment with CG and 4AP treatments. The values represent averages of three independent measurements for each eye.

| SMILES | Ki ([2]; Ki ± S.E. α1, Table 2) [nM] | Ki ([3]; Ki ± S.E. α2, Table 2) [nM] | Selectivity ratio Ki α1/α2 ± S.E. [4] | also measured |
| --- | --- | --- | --- | --- |
| Nc1ccncc1 [4AP, 4-aminopyridine, reference compound] | – | – | – | Rise of IOP ([1]; one or two drops (40 mg/ml) in each eye): 3-6 mm Hg |
| CC1CN(C(C)C(N)=O)CCC(OC2C(O)CC(OC3C(O)CC(OC4CCC5(C)C(CCC6C5CC(O)C5(C)C(C7=CC(=O)OC7)CCC65O)C4)OC3C)OC2C)O1 (stereo not drawn) [DAlaN] | 232 ± 28 | 67 ± 8.1 | 3.46 ± 0.59 | – |
| CC1CN(CCN)CCC(OC2C(O)CC(OC3C(O)CC(OC4CCC5(C)C(CCC6C5CC(O)C5(C)C(C7=CC(=O)OC7)CCC65O)C4)OC3C)OC2C)O1 (stereo not drawn) [DEtDA] | 69 ± 10 | 16.7 ± 2.1 | 4.10 ± 0.82 | – |
| COC(=O)CN1CCC(OC2C(O)CC(OC3C(O)CC(OC4CCC5(C)C(CCC6C5CC(O)C5(C)C(C7=CC(=O)OC7)CCC65O)C4)OC3C)OC2C)OC(C)C1 (stereo not drawn) [DGlMe] | 540 ± 102 | 128 ± 11 | 4.22 ± 0.88 | – |
| CC1CN(CC(=O)O)CCC(OC2C(O)CC(OC3C(O)CC(OC4CCC5(C)C(CCC6C5CC(O)C5(C)C(C7=CC(=O)OC7)CCC65O)C4)OC3C)OC2C)O1 (stereo not drawn) [DGly] | 124 ± 8.6 | 25 ± 3.9 | 5.1±0.54 | – |
| CC1CN(O)CCC(OC2C(O)CC(OC3C(O)CC(OC4CCC5(C)C(CCC6C5CC(O)C5(C)C(C7=CC(=O)OC7)CCC65O)C4)OC3C)OC2C)O1 (stereo not drawn) [DOH] | 311 ± 18.5 | 134 ± 35 | 2.32 ± 0.62 | – |
| CC1CN(CCC(N)=O)CCC(OC2C(O)CC(OC3C(O)CC(OC4CCC5(C)C(CCC6C5CC(O)C5(C)C(C7=CC(=O)OC7)CCC65O)C4)OC3C)OC2C)O1 (stereo not drawn) [DPrN] | 249 ± 37 | 47 ± 7.8 | 5.28±0.75 | – |
| CC1CN(NC(N)=O)CCC(OC2C(O)CC(OC3C(O)CC(OC4CCC5(C)C(CCC6C5CC(O)C5(C)C(C7=CC(=O)OC7)CCC65O)C4)OC3C)OC2C)O1 (stereo not drawn) [DSCar] | 102 ± 23 | 20 ± 3.6 | 4.98±1.2 | – |
| CC1CN(C(CO)C(N)=O)CCC(OC2C(O)CC(OC3C(O)CC(OC4CCC5(C)C(CCC6C5CC(O)C5(C)C(C7=CC(=O)OC7)CCC65O)C4)OC3C)OC2C)O1 (stereo not drawn) [DSerN] | 242 ± 15 | 144 ± 3.5 | 1.68 ± 0.13 | – |
| CC1CN(C(CO)C(=O)O)CCC(OC2C(O)CC(OC3C(O)CC(OC4CCC5(C)C(CCC6C5CC(O)C5(C)C(C7=CC(=O)OC7)CCC65O)C4)OC3C)OC2C)O1 (stereo not drawn) [DSer] | 316 ± 109 | 145 ± 28.5 | 2.18 ± 0.86 | – |
| C[C@H]1O[C@@H](O[C@H]2[C@@H](O)C[C@H](O[C@H]3CC[C@@]4(C)[C@H](CC[C@@H]5[C@@H]4C[C@@H](O)[C@]4(C)[C@@H](C6=CC(=O)OC6)CC[C@]54O)C3)O[C@@H]2C)C[C@H](O)[C@@H]1O [Dbis, digoxigenin bis digitoxide, reference compound] | – | – | 2.65 ± 0.81 | Ki ([2]; Table 2, read-out: Ki ± S.E. α1): 196 ± 8.5 nM; Ki ([3]; Table 2, read-out: Ki ± S.E. α2): 74 ± 5 nM |
| CC1CN(CC(=O)O)CCC(OC2C(O)CC(OC3CCC4(C)C(CCC5C4CC(O)C4(C)C(C6=CC(=O)OC6)CCC54O)C3)OC2C)O1 (stereo not drawn) [DbisGly] | 80 ± 5.5 | 34.9 ± 12 | 2.29 ± 0.80 | – |
| C[C@]12CC[C@H](O)C[C@H]1CC[C@@H]1[C@@H]2C[C@@H](O)[C@]2(C)[C@@H](C3=CC(=O)OC3)CC[C@]12O [Digoxigenin, digoxigenin, reference compound] | 139 ± 17 | 130 ± 13.5 | – | Time IOP is maintained at the low level ([1]; 1 mM, single drop, 4AP every two hours): about 2 hours |
| C[C@@H]1O[C@@H](O[C@H]2C[C@@H](O)[C@]3(CO)[C@H]4[C@H](O)C[C@]5(C)[C@@H](C6=CC(=O)OC6)CC[C@]5(O)[C@@H]4CC[C@]3(O)C2)[C@H](O)[C@H](O)[C@H]1O [Ouabain, ouabain, reference compound] | – | – | – | Effect on 4AP-induced rise in IOP ([1]; 1 mM, 1 drop topically 30 minutes prior to 4AP): somewhat reduced IOP; Effect on 4AP-induced rise in IOP ([1]; concentrations lower than 1 mM, topically 30 minutes prior to 4AP): poorly effective; Wash-out time/rate compared with other cardiac glycosides ([1]; equal concentrations, 4AP every two hours): washed out at a rate between that of digoxin and digoxigenin; Corneal thickness (cornea of rabbits; left eye, 0 h): 455 microns; Corneal thickness (cornea of rabbits; left eye, 2 h): 409 microns; Corneal thickness (cornea of rabbits; left eye, 4 h): 422 microns; Corneal thickness (cornea of rabbits; right eye, 0 h): 461 microns; Corneal thickness (cornea of rabbits; right eye, 2 h): 405 microns; Corneal thickness (cornea of rabbits; right eye, 4 h): 414 microns; Corneal thickness (in words) (cornea of rabbits; over 4 hours, after 4AP, Digoxin 1 mM, DGlyN 0.5 mM, DMe 0.5 mM, ouabain 1 mM): not significantly affected; Redness or local irritation in conjunctiva or cornea (cornea of rabbits; topical, after 4AP): neither redness nor local irritation were observed |
